Tests used:
[1] = target: Ba/F3 EGFR D770_N771insSVD cells (Homo sapiens, UniProt P00533, DUP768-770, cells depend on it); test: Inhibition of cell proliferation, CTG method, Ba/F3 EGFR D770_N771insSVD; assay type: cell-based; settings: 72 hours, read-out: Ba/F3 EGFR D770_N771insSVD IC50
From the text: (§1) The present application examined the in vitro anti-proliferative activity of the compounds of the present disclosure against in vitro cultured HCC-827, Ba/F3-EGFR-VIII and Ba/F3 EGFR D770_N771insSVD cell lines by CTG method.
(§2) Reagents and consumables: RPMI1640 (ThermoFisher, Cat. No. C11875500BT); DMEM (ThermoFisher, C11995500BT); fetal bovine serum (Hyclone, Cat. No. SV30087.03); 0.25% trypsin-EDTA (ThermoFisher, Cat. No. 25200072); penicillin-streptomycin (Hyclone, Cat. No. SV30010); DMSO (Life Science, Cat. No. 0231-500ML); CTG assay kit (Promega, Cat. No. G9243); 96-well plate (Corning, Cat. No. 3599); multifunctional plate reader (Perkin Elmer, Cat. No. Envision)
(§3) Cell lines: HCC-827 (from ATCC), Ba/F3-EGFR-VIII and Ba/F3 EGFR D770_N771insSVD (all from KYinno Biotechnology (Beijing) Co., Ltd.); all of the above cells were cultured with RPMI1640 medium containing 10% fetal bovine serum, 100 U/mL penicillin, and 100 μg/mL streptomycin in the culture process, and HCC-827 was cultured with DMEM medium containing 10% fetal bovine serum, 100 U/mL penicillin, and 100 μg/mL streptomycin.
(§4) • 1. The assay compound was dissolved with DMSO to form a stock solution and a gradient dilution was performed, followed by dilution with the corresponding medium to obtain a solution with 5-fold working concentration. • 2. Cells in logarithmic growth phase were adjusted to specific cell densities by dilution with culture medium, and 80 μL of cell suspension was added to a 96-well plate, such that plating densities of cells of HCC-827, Ba/F3-EGFR-VIII and Ba/F3 EGFR D770_N771insSVD were all 3000 cells/well. The cells of Ba/F3-EGFR-VIII and Ba/F3 EGFR D770_N771insSVD were used directly in the next step (treatment with compound), whereas the HCC-827 needed to be cultured overnight in a 37° C., 5% carbon dioxide gas incubator to adhere to the wall, and then treated with compounds. • 3. 20 μL of compound solution was added to each well of the 96-well plate that had been inoculated with cells. The highest concentration of the assayed compound was 10 μM, 4-fold serial dilution, a total of 9 concentrations, and duplicate wells. A control group without compound was also set up. • 4. The cells were cultured for another 72 hours, and then cell viability was detected by CTG assay kit. Signal values were read with a multifunctional plate reader (Perkin Elmer). GraphPad Prism software was used to create a dose-response curve and IC50 was calculated.

[2] = target: Ba/F3-EGFR-VIII cells (Homo sapiens, UniProt P00533, DELINS30-297G, cells depend on it); test: Inhibition of cell proliferation, CTG method, Ba/F3-EGFR-VIII; assay type: cell-based; settings: 72 hours, read-out: Ba/F3 EGFRvIII IC50
Sequence of Ba/F3-EGFR-VIII cells (P00533 with tags, fused parts or gaps DELINS30-297G): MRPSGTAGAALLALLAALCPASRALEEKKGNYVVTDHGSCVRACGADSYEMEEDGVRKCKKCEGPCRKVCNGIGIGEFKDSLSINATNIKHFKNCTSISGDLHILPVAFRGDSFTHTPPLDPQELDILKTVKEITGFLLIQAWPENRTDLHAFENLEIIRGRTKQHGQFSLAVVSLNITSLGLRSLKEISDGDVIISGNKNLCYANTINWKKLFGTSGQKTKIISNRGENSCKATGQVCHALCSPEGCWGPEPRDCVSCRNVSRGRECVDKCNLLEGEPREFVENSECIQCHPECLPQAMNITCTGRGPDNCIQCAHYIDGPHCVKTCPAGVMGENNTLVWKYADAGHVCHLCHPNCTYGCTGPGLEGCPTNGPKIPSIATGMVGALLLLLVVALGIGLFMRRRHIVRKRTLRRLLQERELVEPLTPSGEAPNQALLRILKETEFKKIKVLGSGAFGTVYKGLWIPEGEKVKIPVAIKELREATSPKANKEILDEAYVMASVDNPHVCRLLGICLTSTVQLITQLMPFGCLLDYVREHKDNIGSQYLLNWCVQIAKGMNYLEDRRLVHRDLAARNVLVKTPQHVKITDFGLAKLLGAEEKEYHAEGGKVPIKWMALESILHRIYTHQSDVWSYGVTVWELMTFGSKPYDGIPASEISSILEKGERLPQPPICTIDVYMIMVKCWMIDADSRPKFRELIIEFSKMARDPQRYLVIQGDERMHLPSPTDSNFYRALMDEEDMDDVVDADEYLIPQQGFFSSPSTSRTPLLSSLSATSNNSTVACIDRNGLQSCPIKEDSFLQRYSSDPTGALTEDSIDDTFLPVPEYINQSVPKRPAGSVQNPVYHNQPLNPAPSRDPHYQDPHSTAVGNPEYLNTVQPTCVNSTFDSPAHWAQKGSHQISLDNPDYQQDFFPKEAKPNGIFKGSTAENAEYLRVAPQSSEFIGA
From the text: as §1, §2, §3, §4

[3] = target: T1, EGFR^WT kinase (Homo sapiens, UniProt P00533); test: EGFR^WT kinase assay (ULight peptide / Eu-PT66 antibody detection); assay type: biochemical
T1 construct: purchased Carna Biosciences 08-115
T1 sequence (P00533 25-1210): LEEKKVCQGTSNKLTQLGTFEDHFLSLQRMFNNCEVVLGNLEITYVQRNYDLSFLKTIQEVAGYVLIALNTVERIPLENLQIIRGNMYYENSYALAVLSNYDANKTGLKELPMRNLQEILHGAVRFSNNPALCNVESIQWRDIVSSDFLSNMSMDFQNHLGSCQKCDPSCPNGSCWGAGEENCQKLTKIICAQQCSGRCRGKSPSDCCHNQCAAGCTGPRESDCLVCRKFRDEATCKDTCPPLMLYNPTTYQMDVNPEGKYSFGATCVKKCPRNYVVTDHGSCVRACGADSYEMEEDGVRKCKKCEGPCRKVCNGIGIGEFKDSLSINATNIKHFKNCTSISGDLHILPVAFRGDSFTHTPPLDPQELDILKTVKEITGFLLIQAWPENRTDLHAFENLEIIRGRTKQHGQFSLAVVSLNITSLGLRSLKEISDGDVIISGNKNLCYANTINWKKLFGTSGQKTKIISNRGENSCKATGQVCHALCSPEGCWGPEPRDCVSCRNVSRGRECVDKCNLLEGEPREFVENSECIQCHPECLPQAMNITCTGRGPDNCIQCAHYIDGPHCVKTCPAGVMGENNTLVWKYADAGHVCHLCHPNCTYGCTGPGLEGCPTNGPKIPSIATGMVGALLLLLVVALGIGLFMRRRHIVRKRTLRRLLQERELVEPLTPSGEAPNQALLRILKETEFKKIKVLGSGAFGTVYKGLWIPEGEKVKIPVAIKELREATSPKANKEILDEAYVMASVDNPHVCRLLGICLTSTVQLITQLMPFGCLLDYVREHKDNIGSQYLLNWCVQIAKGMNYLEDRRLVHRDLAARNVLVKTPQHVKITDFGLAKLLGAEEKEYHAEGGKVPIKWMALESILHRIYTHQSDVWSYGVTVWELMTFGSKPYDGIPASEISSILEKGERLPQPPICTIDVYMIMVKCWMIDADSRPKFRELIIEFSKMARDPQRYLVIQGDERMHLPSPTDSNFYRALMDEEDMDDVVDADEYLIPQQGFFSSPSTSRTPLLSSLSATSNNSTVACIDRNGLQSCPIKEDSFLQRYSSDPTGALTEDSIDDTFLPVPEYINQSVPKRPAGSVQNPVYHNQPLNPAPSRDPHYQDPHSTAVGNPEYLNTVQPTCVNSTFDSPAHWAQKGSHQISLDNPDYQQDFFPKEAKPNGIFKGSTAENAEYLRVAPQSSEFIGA
From the text: (§5) Reagents and consumables: ULight™-labeled Ploy GT Peptide (Perkin Elmer, Cat. No. TRF-0100-M); ULight™-labeled JAK-1 (Try1023) Peptide (Perkin Elmer, Cat. No. TRF-0121-M); Eu-W1024-labeled Anti-Phosphotyrosine Antibody (PT66) (Perkin Elmer, Cat. No. AD0068); 10×Detection Buffer (Perkin Elmer, Cat. No. CR97-100); HER2 Kinase (Carna Biosciences, Cat. No. 08-016); EGFR kinase (Carna Biosciences, Cat. No. 08-115); HEPES (GIBCO, Cat. No. 15630-080); EGTA (Sigma, Cat. No. 03777-10G); EDTA (Sigma, Cat. No. EDS-100G); MgCl2 (Sigma, Cat. No. 63069-100ML); DTT (Sigma, Cat. No. 43816-10ML); Tween-20 (Sigma, Cat. No. P7949-100ML); DMSO (Life Science, Cat. No. 0231-500ML); 384-well plates (Perkin Elmer, Cat. No. 607290); multifunctional plate reader (Perkin Elmer, Cat. No. Envision)
(§6) Preparation of compound solution: The assay compound was dissolved in DMSO to form a 10 mM stock solution. Prior to use, the compound was diluted to 0.25 mM in DMSO (100 times the final concentration of the diluent) and then subjected to a 3-fold concentration gradient dilution to obtain a total of 11 concentrations. The solution was diluted with buffer to a diluent with 4× the final concentration when the drug was added.
(§7) EGFR^WT kinase assay: buffer was prepared, and 3.48 nM 4× EGFR kinase solution, 600 μM 4× ATP solution, and 400 nM 4×ULight™-labeled JAK-1 (Try1023) Peptide substrate solution was prepared using the buffer. After the preparation was completed, the enzyme was mixed with different concentrations of compounds pre-prepared by dilution, and the mixture was left to stand at room temperature for 5 min. Each concentration was performed in duplicate. The corresponding substrate and ATP were added and the mixture was reacted at room temperature for 120 minutes (with negative and positive controls). After completion of the reaction, PT66 detection antibody was added. The mixture was incubated at room temperature for 60 minutes, and then detected by Envision.
(§8) Data Calculation: the reading of well and inhibition rate were calculated using Excel, wherein reading of well=10000*(well EU665 value)/(well EU615 value), and inhibition rate=[(reading of positive control well−reading of assay well)/(reading of positive control well−reading of negative control well)]*100%. Compound concentrations and corresponding inhibition rates were input into GraphPad Prism for processing to calculate IC50 values.

[4] = test system: HCC-827 cells; test: Inhibition of cell proliferation, CTG method, HCC-827; assay type: cell-based; settings: Homo sapiens, HCC827, 72 hours
From the text: as §1, §2, §3, §4

[5] = target: T2, HER2 kinase (Homo sapiens, UniProt P04626); test: HER2 kinase assay (ULight peptide / Eu-PT66 antibody detection); assay type: biochemical
T2 construct: purchased Carna Biosciences 08-016
T2 sequence (P04626 23-1255): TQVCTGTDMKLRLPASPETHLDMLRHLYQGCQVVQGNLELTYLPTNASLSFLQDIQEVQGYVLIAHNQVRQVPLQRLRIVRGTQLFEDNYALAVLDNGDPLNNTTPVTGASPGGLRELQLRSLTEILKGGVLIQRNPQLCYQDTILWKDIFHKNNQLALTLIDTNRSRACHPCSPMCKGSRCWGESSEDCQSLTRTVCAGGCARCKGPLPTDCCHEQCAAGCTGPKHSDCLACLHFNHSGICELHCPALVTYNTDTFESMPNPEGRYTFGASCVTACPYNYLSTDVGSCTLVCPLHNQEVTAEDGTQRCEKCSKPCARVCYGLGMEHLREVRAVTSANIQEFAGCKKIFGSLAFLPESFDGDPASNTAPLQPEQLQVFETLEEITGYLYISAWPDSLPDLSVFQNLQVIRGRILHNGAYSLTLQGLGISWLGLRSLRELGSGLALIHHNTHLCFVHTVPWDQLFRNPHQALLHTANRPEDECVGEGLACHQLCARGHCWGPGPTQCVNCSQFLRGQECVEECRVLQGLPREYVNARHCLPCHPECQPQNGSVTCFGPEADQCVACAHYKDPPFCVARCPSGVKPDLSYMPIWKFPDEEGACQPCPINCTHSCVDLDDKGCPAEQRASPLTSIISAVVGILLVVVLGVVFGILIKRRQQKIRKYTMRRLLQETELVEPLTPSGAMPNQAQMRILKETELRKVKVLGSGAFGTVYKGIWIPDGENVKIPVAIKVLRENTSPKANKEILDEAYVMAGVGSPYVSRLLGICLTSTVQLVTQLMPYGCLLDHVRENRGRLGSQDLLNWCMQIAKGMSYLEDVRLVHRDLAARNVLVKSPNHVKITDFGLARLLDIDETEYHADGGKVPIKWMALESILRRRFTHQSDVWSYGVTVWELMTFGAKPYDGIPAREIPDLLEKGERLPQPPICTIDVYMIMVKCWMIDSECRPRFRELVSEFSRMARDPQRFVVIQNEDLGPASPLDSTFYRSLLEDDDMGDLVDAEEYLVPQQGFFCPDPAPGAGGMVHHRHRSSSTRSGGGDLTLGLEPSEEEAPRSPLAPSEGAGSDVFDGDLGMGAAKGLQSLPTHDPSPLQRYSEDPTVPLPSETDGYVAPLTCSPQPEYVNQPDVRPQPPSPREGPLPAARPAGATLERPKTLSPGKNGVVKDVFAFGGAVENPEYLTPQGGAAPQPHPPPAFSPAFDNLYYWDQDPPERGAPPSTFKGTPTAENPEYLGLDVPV
From the text: as §5, §6
as §7, with “HER2 kinase” for “EGFR^WT kinase”, “and 40” for “and 3.48”, “4× HER2” for “4× EGFR”, “solution, 40” for “solution, 600”, “4×ULight™-labeled Ploy GT” for “4×ULight™-labeled JAK-1 (Try1023)”, “solution were” for “solution was”
as §8

Sequence of Ba/F3 EGFR D770_N771insSVD cells (P00533 with tags, fused parts or gaps DUP768-770): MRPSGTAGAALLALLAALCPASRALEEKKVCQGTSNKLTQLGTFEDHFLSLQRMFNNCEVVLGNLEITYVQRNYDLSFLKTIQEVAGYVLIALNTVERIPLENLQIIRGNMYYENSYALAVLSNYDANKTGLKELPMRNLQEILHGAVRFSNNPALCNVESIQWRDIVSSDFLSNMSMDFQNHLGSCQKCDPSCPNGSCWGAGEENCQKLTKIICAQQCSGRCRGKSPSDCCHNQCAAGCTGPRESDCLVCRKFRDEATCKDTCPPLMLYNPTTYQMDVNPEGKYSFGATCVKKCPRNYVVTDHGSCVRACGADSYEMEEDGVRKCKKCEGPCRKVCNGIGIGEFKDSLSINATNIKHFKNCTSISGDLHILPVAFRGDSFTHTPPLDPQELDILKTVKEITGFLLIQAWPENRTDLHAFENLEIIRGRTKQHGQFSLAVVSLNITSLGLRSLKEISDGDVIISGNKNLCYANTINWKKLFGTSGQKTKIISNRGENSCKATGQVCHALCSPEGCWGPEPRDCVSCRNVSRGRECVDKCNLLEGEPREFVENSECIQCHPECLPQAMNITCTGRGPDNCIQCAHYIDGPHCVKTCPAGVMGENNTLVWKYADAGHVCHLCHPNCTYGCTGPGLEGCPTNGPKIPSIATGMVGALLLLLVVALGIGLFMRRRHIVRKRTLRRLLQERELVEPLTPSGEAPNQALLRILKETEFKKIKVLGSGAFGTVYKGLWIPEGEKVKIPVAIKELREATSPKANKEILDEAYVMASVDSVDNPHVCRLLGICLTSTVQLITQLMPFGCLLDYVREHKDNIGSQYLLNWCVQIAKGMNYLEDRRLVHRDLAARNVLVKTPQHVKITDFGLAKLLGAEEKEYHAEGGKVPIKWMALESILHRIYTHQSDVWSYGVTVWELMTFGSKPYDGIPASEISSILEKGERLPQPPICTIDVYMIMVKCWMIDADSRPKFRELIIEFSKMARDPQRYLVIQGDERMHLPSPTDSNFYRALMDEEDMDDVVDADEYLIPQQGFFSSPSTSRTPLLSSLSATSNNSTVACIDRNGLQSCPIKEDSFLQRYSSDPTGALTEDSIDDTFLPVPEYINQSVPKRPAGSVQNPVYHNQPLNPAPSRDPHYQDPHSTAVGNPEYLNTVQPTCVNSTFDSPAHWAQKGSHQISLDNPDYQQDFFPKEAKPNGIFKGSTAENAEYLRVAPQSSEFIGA

Compound	GI50 [1] [µM]	GI50 [2] [µM]	IC50 [3] [µM]	IC50 [4] [µM]	IC50 [5] [µM]
CSCCOc1c(NC(=O)/C=C/CN(C)C)ccc2ncnc(Nc3cccc(Cl)c3F)c12 [Example 12, (E)-N-(4-((3-chloro-2-fluorophenyl)amino)-5-(2-(methylthio)ethoxy)quinazolin-6-yl)-4-(dimethylamino)but-2-enamide]	–	0.005 to 0.05	≤ 0.001	0.005 to 0.05	0.01 to 0.1
CN1CCC[C@@H]1/C=C/C(=O)Nc1ccc2ncnc(Nc3ccc(Cl)c(Cl)c3F)c2c1OCCO [Example 22, (R,E)-N-(4-((3,4-dichloro-2-fluorophenyl)amino)-5-(2-hydroxyethoxy)quinazolin-6-yl)-3-(1-methylpyrrolidin-2-yl)acrylamide]	0.005 to 0.05	–	≤ 0.001	≤ 0.005	0.001 to 0.01
CN(C)C/C=C/C(=O)Nc1ccc2ncnc(Nc3cccc(Cl)c3F)c2c1OCCCS(C)(=O)=O [Example 7, (E)-N-(4-((3-chloro-2-fluorophenyl)amino)-5-(3-(methylsulfonyl)propoxy)quinazolin-6-yl)-4-(dimethylamino)but-2-enamide]	–	0.005 to 0.05	≤ 0.001	≤ 0.005	0.1 to 1
COc1c(NC(=O)/C=C/CNC(C)C)ccc2ncnc(Nc3cccc(Cl)c3F)c12 [Example 9, (E)-N-(4-((3-chloro-2-fluorophenyl)amino)-5-methoxyquinazolin-6-yl)-4-(isopropylamino)but-2-enamide]	0.005 to 0.05	≤ 0.005	≤ 0.001	≤ 0.005	0.01 to 0.1
COc1c(NC(=O)/C=C/CN(C)C(C)C)ccc2ncnc(Nc3cccc(Cl)c3F)c12 [Example 8, (E)-N-(4-((3-chloro-2-fluorophenyl)amino)-5-methoxyquinazolin-6-yl)-4-(isopropyl(methyl)amino)but-2-enamide]	0.05 to 0.5	0.005 to 0.05	≤ 0.001	≤ 0.005	0.01 to 0.1
CC(C)Oc1c(NC(=O)/C=C/CN(C)C)ccc2ncnc(Nc3cccc(Cl)c3F)c12 [Example 10, (E)-N-(4-((3-chloro-2-fluorophenyl)amino)-5-isopropoxyquinazolin-6-yl)-4-(dimethylamino)but-2-enamide]	0.05 to 0.5	0.05 to 0.5	0.001 to 0.01	0.005 to 0.05	0.1 to 1
COc1c(NC(=O)/C=C/[C@H]2CCCN2C)ccc2ncnc(Nc3ccc(Cl)c(Cl)c3F)c12 [Example 20, (R,E)-N-(4-((3,4-dichloro-2-fluorophenyl)amino)-5-methoxyquinazolin-6-yl)-3-(1-methylpyrrolidin-2-yl)acrylamide]	0.05 to 0.5	–	≤ 0.001	≤ 0.005	0.001 to 0.01
COCCOc1c(NC(=O)/C=C/CN(C)C)ccc2ncnc(Nc3ccc(Cl)c(Cl)c3F)c12 [Example 23, (E)-N-(4-((3,4-dichloro-2-fluorophenyl)amino)-5-(2-methoxyethoxy)quinazolin-6-yl)-4-(dimethylamino)but-2-enamide]	0.05 to 0.5	–	≤ 0.001	≤ 0.005	0.01 to 0.1
COCCOc1c(NC(=O)/C=C/[C@H]2CCCN2C)ccc2ncnc(Nc3ccc(Cl)c(Cl)c3F)c12 [Example 24, (R,E)-N-(4-((3,4-dichloro-2-fluorophenyl)amino)-5-(2-methoxyethoxy)quinazolin-6-yl)-3-(1-methylpyrrolidin-2-yl)acrylamide]	0.05 to 0.5	–	≤ 0.001	≤ 0.005	0.01 to 0.1

Other lines, results leading:

GI50 [1] [µM]	GI50 [2] [µM]	IC50 [3] [µM]	IC50 [4] [µM]	IC50 [5] [µM]	Compound
0.05 to 0.5	≤ 0.005	≤ 0.001	≤ 0.005	0.1 to 1	CN(C)C/C=C/C(=O)Nc1ccc2ncnc(Nc3cccc(Cl)c3F)c2c1OCCCO [Example 11, (E)-N-(4-((3-chloro-2-fluorophenyl)amino)-5-(3-hydroxypropoxy)quinazolin-6-yl)-4-(dimethylamino)but-2-enamide]
0.005 to 0.05	–	≤ 0.001	≤ 0.005	0.01 to 0.1	CN(C)C/C=C/C(=O)Nc1ccc2ncnc(Nc3ccc(Cl)c(Cl)c3F)c2c1OCCO [Example 21, (E)-N-(4-((3,4-dichloro-2-fluorophenyl)amino)-5-(2-hydroxyethoxy)quinazolin-6-yl)-4-(dimethylamino)but-2-enamide]
0.05 to 0.5	≤ 0.005	≤ 0.001	≤ 0.005	0.01 to 0.1	CN(C)C/C=C/C(=O)Nc1ccc2ncnc(Nc3cccc(Cl)c3F)c2c1OCC(C)(C)O [Example 13, (E)-N-(4-((3-chloro-2-fluorophenyl)amino)-5-(2-hydroxy-2-methylpropoxy)quinazolin-6-yl)-4-(dimethylamino)but-2-enamide]
0.05 to 0.5	0.005 to 0.05	≤ 0.001	≤ 0.005	0.1 to 1	CN(C)C/C=C/C(=O)Nc1ccc2ncnc(Nc3cccc(Cl)c3F)c2c1OCC(F)F [Example 17, (E)-N-(4-((3-chloro-2-fluorophenyl)amino)-5-(2,2-difluoroethoxy)quinazolin-6-yl)-4-(dimethylamino)but-2-enamide]
0.05 to 0.5	0.005 to 0.05	≤ 0.001	≤ 0.005	0.1 to 1	COCCCOc1c(NC(=O)/C=C/CN(C)C)ccc2ncnc(Nc3cccc(Cl)c3F)c12 [Example 6, (E)-N-(4-((3-chloro-2-fluorophenyl)amino)-5-(3-methoxypropoxy)quinazolin-6-yl)-4-(dimethylamino)but-2-enamide]
